According to DBAASP:
In brackets after ≈: the same amount, converted by molar mass. Several values for one entry are separate records, joined by “and”; a condition that tells them apart may be missing. Identical values can stand only once. Values belong to the compound of their own block, whether it stands above or below them.

Tests used:
Test in all cases: ≥ marks a high value that may be exact or a test limit, other limits are often not marked, values filed in µg/mL are converted to µM
[1] = tested on: Bacillus subtilis ATCC 6633
[2] = tested on: Escherichia coli ATCC 10536
[3] = tested on: Bacillus megaterium NRRL B-4272
[4] = tested on: Staphylococcus aureus ATCC 9144
[5] = tested on: Escherichia coli NBRC 3972
[6] = tested on: Salmonella enterica subsp. enterica NBRC 100797
[7] = tested on: Proteus vulgaris NBRC 3045
[8] = tested on: Pseudomonas aeruginosa ATCC BAA-2111
Staphylococcus aureus = tested on: Staphylococcus aureus
[9] = tested on: Pseudomonas aeruginosa NBRC 13275
[10] = tested on: Escherichia coli DH5alpha
[11] = tested on: Staphylococcus epidermidis
[12] = tested on: Staphylococcus aureus NBRC 13276
[13] = tested on: Klebsiella pneumoniae NBRC 3512
[14] = tested on: Staphylococcus aureus ATCC 25923
[15] = tested on: Staphylococcus epidermidis ATCC 12228
[16] = tested on: Trichophyton rubrum ATCC 28189
[17] = tested on: Candida albicans ATCC 90028
[18] = tested on: Candida parapsilosis ATCC 22019
Aspergillus fumigatus = tested on: Aspergillus fumigatus
[19] = tested on: Trichophyton mentagrophytes
[20] = tested on: Klebsiella pneumoniae ATCC 27736
[21] = tested on: Escherichia coli ATCC 9637
Bacillus cereus = tested on: Bacillus cereus
[22] = tested on: Pseudomonas aeruginosa ATCC BAA-427
Sporothrix schenckii = tested on: Sporothrix schenckii
[23] = tested on: Staphylococcus aureus MTCC 9542
[24] = tested on: Bacillus subtilis MTCC 14416
Vibrio cholerae = tested on: Vibrio cholerae
[25] = tested on: Staphylococcus aureus ATCC 43300
[26] = tested on: Pseudomonas aeruginosa ATCC 27853
[27] = tested on: Enterococcus faecalis ATCC 29212
Escherichia coli MG1655 = tested on: Escherichia coli MG1655
[28] = tested on: Acinetobacter baumannii ATCC 19606
[29] = tested on: Escherichia coli ATCC 25922
[30] = tested on: Cryptococcus neoformans var. grubii H99
[31] = tested on: Staphylococcus aureus JE2
Escherichia coli K-12 = tested on: Escherichia coli K-12
[32] = tested on: Klebsiella pneumoniae ATCC 700603
[33] = tested on: Bacillus cereus ATCC 14579
[34] = tested on: Enterococcus faecium 5F-10
[35] = tested on: Bacillus amyloliquefaciens ATCC 23842
[36] = tested on: Salmonella enterica ATCC H9812
[37] = tested on: Enterococcus faecalis 1F-1
[38] = tested on: Bacillus subtilis ATCC 6051
[39] = tested on: Bacillus licheniformis ATCC 14580
[40] = tested on: Proteus mirabilis ATCC 35659
[41] = tested on: Staphylococcus aureus ATCC 29213
[42] = tested on: Pseudomonas aeruginosa PAO1

Structure (SMILES): CC(C)C[C@H](NC(=O)[C@H](CC(C)C)NC(=O)[C@H](CCCN=C(N)N)NC(=O)[C@H](CCCN=C(N)N)NC(=O)[C@H](CC(C)C)NC(=O)[C@H](Cc1c[nH]c2ccccc12)NC(=O)[C@H](CCCN=C(N)N)NC(=O)[C@H](CC(C)C)NC(=O)[C@H](CC(C)C)NC(=O)[C@H](CCCN=C(N)N)NC(=O)[C@H](CCCN=C(N)N)NC(=O)[C@@H](N)CC(C)C)C(=O)N[C@@H](CCCN=C(N)N)C(=O)N[C@@H](CCCN=C(N)N)C(=O)O [LRRLLRWLRRLLRR]
MIC [14]: 0.789 µM (≈ 1.56 µg/mL) | MIC [18]: 3.16 µM (≈ 6.25 µg/mL) | MIC (Aspergillus fumigatus): 3.16 µM (≈ 6.25 µg/mL) | MIC [19]: 3.16 µM (≈ 6.25 µg/mL) | MIC [20]: 1.59 µM (≈ 3.15 µg/mL) | MIC [21]: 12.6 µM (≈ 25 µg/mL) | MIC (Bacillus cereus): 1.59 µM (≈ 3.15 µg/mL) | MIC [22]: 12.6 µM (≈ 25 µg/mL) | MIC (Sporothrix schenckii): 1.59 µM (≈ 3.15 µg/mL)

Structure (SMILES): CC[C@H](C)[C@@H]1NC(=O)[C@H](CCCCN)NC(=O)[C@@H](NC(=O)[C@H](CC(C)C)NC(=O)[C@@H](NC(=O)[C@H](CCC(N)=O)NC(=O)[C@@H]2CCCN2C(=O)[C@H](CC(C)C)NC(=O)[C@H](Cc2ccccc2)NC(=O)[C@H](CC(N)=O)NC(=O)[C@H](C)NC(=O)[C@H](C)NC(=O)[C@H](CC(C)C)NC(=O)CNC(=O)[C@H](C)NC(=O)[C@@H](NC(=O)[C@@H](N)CCCN=C(N)N)[C@@H](C)CC)[C@@H](C)CC)CSSC[C@@H](C(N)=O)NC(=O)[C@H](CCCCN)NC(=O)[C@H](CCCN=C(N)N)NC(=O)[C@H](C)NC1=O [RIAGLAANFLPQILCKIARKC]
MIC [23]: 10.9 µM (≈ 25 µg/mL) | MIC [24]: 21.7 µM (≈ 49.9 µg/mL) | MIC (Vibrio cholerae): 5.44 µM (≈ 12.5 µg/mL) | MIC [25]: 10.9 µM (≈ 25 µg/mL) | MIC [26]: > 43.5 µM | MIC [27]: 21.7 µM (≈ 49.9 µg/mL) | MIC (Escherichia coli MG1655): 10.9 µM (≈ 25 µg/mL)

Structure (SMILES): CC[C@H](C)[C@H](NC(=O)[C@@H](NC(=O)[C@H](CO)NC(=O)[C@H](C)NC(=O)[C@@H](NC(=O)[C@H](CCCN=C(N)N)NC(=O)[C@H](CCCN=C(N)N)NC(=O)[C@@H](NC(=O)[C@@H](NC(=O)[C@H](CC(=O)O)NC(=O)[C@H](Cc1ccccc1)NC(=O)[C@H](CC(C)C)NC(=O)CN)C(C)C)[C@@H](C)CC)C(C)C)C(C)C)C(=O)NCC(=O)NCC(=O)N[C@@H](CC(C)C)C(=O)O [GLFDVIRRVASVIGGL]
MIC [28]: 19.1 µM (≈ 32 µg/mL) | MIC [29]: 19.1 µM (≈ 32 µg/mL) | MIC [30]: 9.57 µM (≈ 16 µg/mL) | MIC [31]: 9.57 µM (≈ 16 µg/mL) | MIC (Escherichia coli K-12): 19.1 µM (≈ 32 µg/mL) | MIC [25]: 9.57 µM (≈ 16 µg/mL) | MIC [32]: > 19.1 µM | MIC [26]: > 19.1 µM | MIC [17]: 9.57 µM (≈ 16 µg/mL)

Structure (SMILES): CC(C)C[C@H](NC(=O)[C@H](CC(C)C)NC(=O)[C@@H](N)CCC(=O)O)C(=O)N[C@@H](CO)C(=O)N[C@@H](CCCN=C(N)N)C(=O)N[C@H](C(=O)O)C(C)C [ELLSRV]
MIC [33]: ≥ 179 µM | MIC [34]: ≥ 179 µM | MIC [35]: ≥ 179 µM | MIC [36]: ≥ 89.4 µM | MIC [29]: 89.4 µM (≈ 64 µg/mL) | MIC [37]: ≥ 179 µM | MIC [38]: ≥ 179 µM | MIC [39]: ≥ 179 µM | MIC [40]: ≥ 179 µM | MIC [41]: > 179 µM | MIC [42]: > 179 µM

Further lines, results first:

MIC [1]: 10 µM (≈ 24.7 µg/mL) | MIC [2]: 5 µM (≈ 12.3 µg/mL) | MIC [3]: 12 µM (≈ 29.6 µg/mL) | MIC [4]: ≥ 40 µM
Structure (SMILES): CC[C@H](C)[C@H](NC(=O)[C@H](Cc1ccccc1)NC(=O)[C@H](CCCCN)NC(=O)[C@H](CCCCN)NC(=O)[C@H](Cc1ccccc1)NC(=O)[C@H](CO)NC(=O)[C@H](Cc1cnc[nH]1)NC(=O)[C@H](CC(C)C)NC(=O)[C@H](C)NC(=O)[C@H](CCCCN)NC(=O)CNC(=O)CNC(=O)CN)C(=O)N[C@@H](CCCCN)C(=O)N[C@@H](C)C(=O)N[C@@H](Cc1ccccc1)C(=O)N[C@H](C(=O)NCC(=O)N[C@@H](CCC(=O)O)C(=O)N[C@H](C(=O)N[C@@H](CCSC)C(=O)N[C@@H](CC(N)=O)C(=O)N[C@@H](CO)C(N)=O)[C@@H](C)CC)C(C)C [GGGKALHSFKKFIKAFVGEIMNS]

MIC [5]: 3.12 µM and 3.1 µM | MIC [6]: 1.6 µM (≈ 3.57 µg/mL) | MIC [7]: ≥ 100 µM | MIC [8]: 1.39 µM (≈ 3.1 µg/mL) | MIC (Staphylococcus aureus): 12.5 µM (≈ 27.9 µg/mL) | MIC [9]: 1.56 µM and 0.716 µM | MIC [10]: 3.12 µM and 3.1 µM | MIC [11]: 1.56 µM (≈ 3.48 µg/mL) | MIC [12]: 5.59 µM (≈ 12.5 µg/mL) | MIC [13]: 0.716 µM (≈ 1.6 µg/mL)
Structure (SMILES): CC(C)C[C@H](NC(=O)[C@H](CCCCN)NC(=O)CNC(=O)[C@H](C)NC(=O)[C@H](CCCCN)NC(=O)[C@H](CCCCN)NC(=O)[C@H](CC(C)C)NC(=O)[C@H](CC(C)C)NC(=O)[C@H](CCCCN)NC(=O)CNC(=O)[C@H](C)NC(=O)[C@H](CCCCN)NC(=O)[C@H](CCCCN)NC(=O)[C@H](CC(C)C)NC(=O)[C@H](CC(C)C)NC(=O)[C@@H](N)CCCCN)C(=O)N[C@@H](CC(C)C)C(=O)N[C@@H](CCCCN)C(=O)N[C@@H](CCCCN)C(=O)N[C@@H](C)C(=O)NCC(N)=O [KLLKKAGKLLKKAGKLLKKAG]

MIC [14]: 32 µM (≈ 81.5 µg/mL) | MIC [15]: 21.3 µM (≈ 54.3 µg/mL) | MIC [16]: ≥ 256 µM | MIC [17]: ≥ 32 µM
Structure (SMILES): CC[C@H](C)[C@H](NC(=O)[C@H](Cc1c[nH]c2ccccc12)NC(=O)[C@H](CCCCN)NC(=O)[C@H](Cc1cnc[nH]1)NC(=O)[C@H](Cc1ccccc1)NC(=O)[C@H](CCC(=O)O)NC(=O)[C@H](CCCN=C(N)N)NC(=O)[C@H](CC(C)C)NC(=O)[C@@H](N)Cc1ccccc1)C(=O)N[C@@H](CCC(=O)O)C(=O)N[C@@H](CCCN=C(N)N)C(=O)N[C@H](C(=O)N[C@H](C(=O)NCC(=O)N[C@@H](Cc1c[nH]c2ccccc12)C(=O)N[C@@H](CC(C)C)C(=O)NCC(=O)N[C@@H](CCCCN)C(=O)N[C@H](C(=O)N[C@@H](Cc1ccccc1)C(N)=O)C(C)C)C(C)C)C(C)C [FLREFHKWIERVVGWLGKVF]
